{"source": "ChEMBL document CHEMBL3507680", "about": "“University of Dundee, Gates Library screen for HepG2 cell viability”", "experiment": "Human HepG2 cell viability assay in 384 well format", "assay_type": "toxicity, cell-based", "parameters": "dose 125 nL, time 70.5 hour; cytotoxicity at 70.5 h: concentration not given beside the values", "details": "HepG2 cells, read-out: Inhibition"}
{"compound": "CN(Cc1ccccc1CN1CCCC1)C(=O)c1c(O)cccc1O", "values": [{"measurement": "cytotoxicity at 70.5 h", "result": 7.79, "unit": "%"}]}
{"compound": "COCCN1CCN(C(=O)C(c2cccc(F)c2)N(C)C)CC1", "note": "(centres undefined)", "values": [{"measurement": "cytotoxicity at 70.5 h", "result": 1.27, "unit": "%"}]}
{"compound": "Cc1nn(C)c2nc(N(Cc3cnn(C)c3)C3CCCCC3)sc12", "values": [{"measurement": "cytotoxicity at 70.5 h", "result": 7.12, "unit": "%"}]}
{"compound": "NCCO[C@H]1C[C@@H](O)C12CCN(Cc1c(F)cccc1F)CC2", "values": [{"measurement": "cytotoxicity at 70.5 h", "result": -7.05, "unit": "%"}]}
{"compound": "Cc1cnc(C)c(-c2cc(O)c3c(c2)CN(c2nccs2)CCO3)n1", "values": [{"measurement": "cytotoxicity at 70.5 h", "result": -5.12, "unit": "%"}]}
{"compound": "Cc1cnc(NC(C)Cc2cnccn2)nc1N(C)C", "note": "(centres undefined)", "values": [{"measurement": "cytotoxicity at 70.5 h", "result": -4.28, "unit": "%"}]}
{"compound": "COc1cccc(OCCn2c(C)c(C)oc2=O)c1", "values": [{"measurement": "cytotoxicity at 70.5 h", "result": 0.585, "unit": "%"}]}
{"compound": "O=C(c1ccoc1)N1CCc2ncnc(NCc3ccccn3)c2CC1", "values": [{"measurement": "cytotoxicity at 70.5 h", "result": 25.5, "unit": "%"}]}
{"compound": "CN(Cc1ccc(C2CC(=O)Nc3n[nH]cc32)o1)S(C)(=O)=O", "note": "(centres undefined)", "values": [{"measurement": "cytotoxicity at 70.5 h", "result": 9.86, "unit": "%"}]}
{"compound": "CCc1cc(NCCCN(C)C2CCCC2)ncn1", "values": [{"measurement": "cytotoxicity at 70.5 h", "result": -11.3, "unit": "%"}]}
{"compound": "NC(=O)CN1CCC(C(=O)NCc2ccc3nonc3c2)CC1", "values": [{"measurement": "cytotoxicity at 70.5 h", "result": -14.2, "unit": "%"}]}
{"compound": "Cc1ccc2[nH]c(C(=O)N3CCC4(CC3)C(=O)NCCN4C)nc2c1", "values": [{"measurement": "cytotoxicity at 70.5 h", "result": -6.83, "unit": "%"}]}
{"compound": "O=C(O)c1cn(CC2CCCN(c3cnc4ccccc4n3)C2)nn1", "note": "(centres undefined)", "values": [{"measurement": "cytotoxicity at 70.5 h", "result": -3.54, "unit": "%"}]}
{"compound": "O=C(Nc1cnn(CC(=O)N2CCCCO2)c1)c1ccsc1", "values": [{"measurement": "cytotoxicity at 70.5 h", "result": -2.35, "unit": "%"}]}
{"compound": "CC(C)c1noc(C2CCCN2C(=O)Cc2cn3ccsc3n2)n1", "note": "(centres undefined)", "values": [{"measurement": "cytotoxicity at 70.5 h", "result": -9.25, "unit": "%"}]}
{"compound": "CC(C)(CN1CCC(Cc2cccc(C(=O)O)c2)C1)N1CCOCC1", "note": "(centres undefined)", "values": [{"measurement": "cytotoxicity at 70.5 h", "result": -9.68, "unit": "%"}]}
{"compound": "CCc1cc(NCCNC(=O)c2cccnc2)n2nc(C)c(C)c2n1", "values": [{"measurement": "cytotoxicity at 70.5 h", "result": 21, "unit": "%"}]}
{"compound": "CN(C(=O)COc1ccc(F)cc1)[C@@H]1CS(=O)(=O)C[C@H]1O", "values": [{"measurement": "cytotoxicity at 70.5 h", "result": -0.138, "unit": "%"}]}
{"compound": "CCc1noc(CN(C)C(=O)C2COc3ccccc3C2)n1", "note": "(centres undefined)", "values": [{"measurement": "cytotoxicity at 70.5 h", "result": -0.861, "unit": "%"}]}
{"compound": "CSc1ncccc1C(=O)N1CCC2(CC1)c1nc[nH]c1CCN2C", "values": [{"measurement": "cytotoxicity at 70.5 h", "result": 7.45, "unit": "%"}]}
{"compound": "CCCC(CNc1cc(C(C)C)nc2ccnn12)N(C)C", "note": "(centres undefined)", "values": [{"measurement": "cytotoxicity at 70.5 h", "result": 39.1, "unit": "%"}]}
{"compound": "Cc1cc(N[C@H](CO)c2ccccc2)n2nc(C)cc2n1", "values": [{"measurement": "cytotoxicity at 70.5 h", "result": -1.18, "unit": "%"}]}
{"compound": "COc1ccc(CC(=O)N2CC[C@@]3(O)CCNC[C@H]3C2)c(OC)c1", "values": [{"measurement": "cytotoxicity at 70.5 h", "result": -7.58, "unit": "%"}]}
{"compound": "Cn1ccnc1SCCNC(=O)CC1CCc2ccccc21", "note": "(centres undefined)", "values": [{"measurement": "cytotoxicity at 70.5 h", "result": -10.6, "unit": "%"}]}
{"compound": "Cc1ccc(C(C(=O)N2CCC(Cc3noc(C)n3)CC2)N(C)C)cc1", "note": "(centres undefined)", "values": [{"measurement": "cytotoxicity at 70.5 h", "result": -8.55, "unit": "%"}]}
{"compound": "N[C@H]1CCCN(C(=O)c2cnc(COc3ccccc3)nc2O)C1", "values": [{"measurement": "cytotoxicity at 70.5 h", "result": -9.44, "unit": "%"}]}
{"compound": "CSCc1nc(CCNC(=O)C(N)c2c(C)n[nH]c2C)cs1", "note": "(centres undefined)", "values": [{"measurement": "cytotoxicity at 70.5 h", "result": -3.99, "unit": "%"}]}
{"compound": "CCCN(Cc1cccnc1)C(=O)C1CCN(Cc2ccco2)CC1", "values": [{"measurement": "cytotoxicity at 70.5 h", "result": -2.7, "unit": "%"}]}
{"compound": "Cc1nc(CN2CCN(Cc3cc4n(n3)CCNC4)CC2)cs1", "values": [{"measurement": "cytotoxicity at 70.5 h", "result": 22.5, "unit": "%"}]}
{"compound": "CC(=O)C1(c2ccccc2)CCN(C(=O)c2ccc3nnnn3c2)CC1", "values": [{"measurement": "cytotoxicity at 70.5 h", "result": 2.77, "unit": "%"}]}
{"compound": "CSCCc1c(-c2ccccc2)ncn1CCNc1cccnc1", "values": [{"measurement": "cytotoxicity at 70.5 h", "result": -8.03, "unit": "%"}]}
{"compound": "COc1ccc(OC)c(C(=O)N2C[C@H]3CC[C@@H]2CN(C)C3)c1", "values": [{"measurement": "cytotoxicity at 70.5 h", "result": 20.2, "unit": "%"}]}
{"compound": "COc1cccc2c1OCC(CNC(=O)Cc1cnccn1)C2", "note": "(centres undefined)", "values": [{"measurement": "cytotoxicity at 70.5 h", "result": -3.59, "unit": "%"}]}
{"compound": "NCCC1CN(c2nc(-c3ccccc3)nc3c2CCNC3)CCO1", "note": "(centres undefined)", "values": [{"measurement": "cytotoxicity at 70.5 h", "result": 2.96, "unit": "%"}]}
{"compound": "Cc1c(CN2C[C@H](O)[C@@H](N3CCOCC3)C2)[nH]c2ccc(F)cc12", "values": [{"measurement": "cytotoxicity at 70.5 h", "result": 12.2, "unit": "%"}]}
{"compound": "Cc1cnc(N2CCCOC(CN3CCCCC3)C2)nc1", "note": "(centres undefined)", "values": [{"measurement": "cytotoxicity at 70.5 h", "result": -5.72, "unit": "%"}]}
{"compound": "CSCCC(=O)N1CCC(c2nnc(CN(C)CCO)n2C)CC1", "values": [{"measurement": "cytotoxicity at 70.5 h", "result": -2.23, "unit": "%"}]}
{"compound": "OCCCN1CCc2onc(C(c3ccccc3)c3ccccc3)c2C1", "values": [{"measurement": "cytotoxicity at 70.5 h", "result": 6.85, "unit": "%"}]}
{"compound": "O=C1CCCN1CCN1CC=C(c2cnn(C3CCS(=O)(=O)C3)c2)CC1", "note": "(centres undefined)", "values": [{"measurement": "cytotoxicity at 70.5 h", "result": -10.3, "unit": "%"}]}
{"compound": "CCc1nnc(CN(CC)C(=O)C2CC(=O)N(C3CCCC3)C2)o1", "note": "(centres undefined)", "values": [{"measurement": "cytotoxicity at 70.5 h", "result": -10.6, "unit": "%"}]}
{"compound": "CCC(C(=O)NC1(COC)CCCC1)n1cccn1", "note": "(centres undefined)", "values": [{"measurement": "cytotoxicity at 70.5 h", "result": 5.08, "unit": "%"}]}
{"compound": "COCCN1C[C@H]2CC[C@@H]1CN(Cc1cc(=O)c3cc(C)ccc3[nH]1)C2", "values": [{"measurement": "cytotoxicity at 70.5 h", "result": -7.09, "unit": "%"}]}
{"compound": "CCN(CC)c1ncccc1CNCc1ccc(-c2ccn[nH]2)s1", "values": [{"measurement": "cytotoxicity at 70.5 h", "result": -6.37, "unit": "%"}]}
{"compound": "CC(C)c1nc(CN(C)C(=O)C2CC(=O)N(Cc3ccncc3)C2)cs1", "note": "(centres undefined)", "values": [{"measurement": "cytotoxicity at 70.5 h", "result": 5.05, "unit": "%"}]}
